Data set [1] is described as follows: Systemic COHb and blood chemistry after oral methylene chloride in rats. Format: in vivo, rat. Particulars: MC-treated rats, 500 mg/kg daily. The method, then: MC (Sigma, St. Louis, Mo.) was diluted in olive oil and administered orally on a daily basis (from day 0 to 30) at 500 mg/kg. This dose saturates the cytochrome P-450 oxidative system, and yields maximal COHb values of 10% COHb in venous or aortic blood. Gargas et al. and Andersen et al., supra; Wirkner et al., Toxicol. App. PharmacoL 143:83-88 (1997). […] Id. […] Kirschman, Fd. Chem. Toxic. 24:943-49 (1986); Dhillon and Von Burg, Toxicology Update 1:329-35 (1995). MC may show liver and central nervous system toxicity at higher doses and/or longer exposures. Id. COHb levels were evaluated in heparinized venous blood using the VOXimeter sensor (A-VOX Systems, San Antonio, Tex.) and expressed as the percentage of total hemoglobin. Bicarbonates, soluble CO2, total CO2 and pH were measured using standard clinical biochemistry techniques (Laboratory of Biochemistry, University Hospital of Nantes).

The subject of another data set is HO-1. The data set is described as follows: HO-1 enzymatic activity in liver homogenates. Format: biochemical, rat. Particulars: liver after perfusion; ZnPP = 1.5 mg/kg i.p. 24 h before harvest then CO perfusion; CO = CO only. The method, then: HO-1 Enzymatic Activity. Livers were homogenized on ice in a Tris-HCl lysis buffer (pH 7.4) containing 0.5% Triton X-100 and protease inhibitors. Samples were frozen in small aliquots until use. Homogenates (100 μl) were mixed with 0.8 mM NADPH, 0.8 mM glucose-6-phosphate 1.0 unit G-60P dehydrogenase, 1 mM MgCl2 and […] purified rat liver biliverdin reductase at 4° C. The reaction was initiated by the addition of hemin (final concentration 0.25 mM). The reaction mixture was incubated at 37° C. in the dark for 15 min. At the end of incubation period, any insoluble material was removed by centrifugation and supernatants were analyzed for bilirubin concentration. An extinction coefficient of 40 mM^−1 cm^−1 at A 460-530 was used to calculate the amount of bilirubin formed. Controls included naive samples in the absence of the NADPH generating system and all the ingredients of the reaction mixture in the absence of graft homogenates. Biliverdin reductase was purified from rat liver, as described in Browne and Ultrich, Mol. Pharmacol. 32:497-504 (1987).

Another data set concerns aortic allografts. The data set is described as follows: Immunohistology of aortic grafts: activation markers and cytokines. Details: key: −: not present; +: low; ++: moderate; +++: frequent. The class given is in vivo, rat. Here is the method: Immunohistological analysis. Immunohistology was performed on cryostat sections as previously described in detail. Guillot et al., J. Immunol. 164:5258-68 (2000). Immunohistological analysis of infiltrating leukocytes was performed at day 30 after transplantation using the following mouse Mab: a mixture of two anti-leukocyte CD45 Mabs (OX1 AND OX30), anti-monocyte/macrophage CD68 (ED1), anti-αβ TCR (R.7.3), anti-CD4 (W3/25), anti-CD8 α chain (OX8), anti-monomorphic class II MHC antigens (OX6), anti-CD25 (OX39) (all from ECACC, Wiltshire, UK), anti-CD54 (ICAM-1) (Seikagaku America Inc., Rockville, Mass.), anti-CD86 (B7.2) (Pharmingen, Franklin Lakes, N.J.) and an irrelevant mouse Mab (3G8, anti-human CD16). VSMCs were detected using a mouse anti-α human smooth muscle actin Mab (Sigma, St. Louis, Mo.). Slides were then incubated with a biotin-conjugated anti-mouse immunoglobulin antibody (Vector Laboratories, Burlingame, Calif.), followed by HRP-conjugated streptavidin (Vector Laboratories) and VIP substrate. IFNγ expression was analyzed using a hamster Mab (Genzyme, Cambridge, Mass.). The IP10 chemiokine was detected using a goat anti-IP10 antibody (Santa Cruz, Santa Cruz, Calif.). Rabbit antibodies were used to detect iNOS (Transduction Laboratories, Lexington, Ky.), HO-1 (Stressgen) and TGFβ1 (Promega, Madison, Wis.). Biotin-conjugated anti-hamster, anti-goat and anti-rabbit antibodies were from Jackson Immunoresearch. Binding of these antibodies was detected by incubation with HRP-conjugated streptavidin and VIP substrate. Tissue sections were counterstained with hematoxylin and lithium carbonate.

For the molecule `ClCCl` [methylene chloride], the “behavior, food consumption, gross necropsy” value in data set [1] is “normal behavior, food consumption and no particular gross necropsy alterations”.
As for `[C-]#[O+]` [CO, carbon monoxide], the HO-1 enzyme activity with HO-1 is recorded as 2.25±0.18 nmol of bilirubin/mg/protein/min. Besides, in the data set with aortic allografts (adventitia), the “CD54 (ICAM-1)” value was “+++”, the “CD86 (B7.2)” value is reported as “+”, the INOS entry is “+++” and the IP10 entry is “+”. Also, in the data set with aortic allografts (adventitia), the MHC-II result was “++” and the TGFβ entry is given as “++”. In the data set with aortic allografts (intima), the “CD54 (ICAM-1)” value was “++”, the “CD86 (B7.2)” value is “+”, the INOS result is listed as “++” and the IP10 result is reported as “+”. Also, in the data set on aortic allografts (intima), the MHC-II entry was “++” and the TGFβ entry is listed as “+”. In the data set on aortic allografts (media), the “CD54 (ICAM-1)” value is given as “−”, the “CD86 (B7.2)” value is on record as “−”, the INOS entry was “++” and the IP10 entry is “+”. Further, in the data set on aortic allografts (media), the MHC-II entry is given as “−” and the TGFβ result was “+”.
